Measured values: patent publication EP4603105A1, “PHARMACEUTICAL COMPOSITION CONTAINING CYCLIC COMPOUND HAVING SELECTIVE KRAS INHIBITORY EFFECT AGAINST HRAS AND NRAS” (CHUGAI SEIYAKU KABUSHIKI KAISHA, priority 2022, dated 2024)
*1 amine or outer side, *2 acyl side, *3 side chain or, on linkers, in order; H or OH if unused. Where a SMILES comes first, the peptide text is derived from it. Bridges are numbered along the chain shown (N, C = ends). [ ]: non-standard residue; d: D form. The star is where a group is joined. hPhe(3,5-F2-4-CF3) = N[C@@H](CCc1cc(F)c(C(F)(F)F)c(F)c1)C(=O)O; hPhe(3-Cl-4-CF3) = N[C@@H](CCc1ccc(C(F)(F)F)c(Cl)c1)C(=O)O; NPrPhe(4-CF3) = CCCN[C@@H](Cc1ccc(C(F)(F)F)cc1)C(=O)O; Pro(4-spirocPr) = O=C(O)[C@@H]1CC2(CC2)CN1; NMeGly(cPent) = CN[C@H](C(=O)O)C1CCCC1; X3 = CCC[C@](C)(N[*:1])C(=O)[*:2]; NMeD = CN[C@@H](CC(=O)O)C(=O)O; NMeL = CN[C@@H](CC(C)C)C(=O)O; Morpholide = C1CN(*)CCO1; Ac5c = NC1(C(=O)O)CCCC1; Aze = O=C(O)[C@@H]1CCN1; Sar = CNCC(=O)O

Columns and labels:
[1] = system: human lung cancer strain NCI-H441; assay type: cell-based
Summary of the method: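 Signal came from […] measured per well once the reagent was added. Beforehand, cells were cultured at 37°C and 5% carbon dioxide on a compound series serially diluted in dimethyl sulfoxide.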

[2] = target: GDP-bound NRAS wild-type protein (Homo sapiens, UniProt P01111); assay: Binding to NRAS by surface plasmon resonance (SPR), KD and KD ratio to KRAS
Sequence of GDP-bound NRAS wild-type protein (P01111 whole entry): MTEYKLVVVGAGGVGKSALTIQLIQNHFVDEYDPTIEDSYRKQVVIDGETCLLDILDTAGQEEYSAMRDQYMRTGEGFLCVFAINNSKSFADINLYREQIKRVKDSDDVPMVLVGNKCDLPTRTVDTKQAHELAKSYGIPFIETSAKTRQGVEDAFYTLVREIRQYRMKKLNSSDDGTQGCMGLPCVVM
Summary of the method: (§1)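 Each cycle, GDP-bound biotin-Avi RAS was captured (~100–300 RU), compound concentrations were injected low to high for 75 s each at 100 µL/min, then the chip was regenerated. Buffer: HBS pH 7.4, 10 mM MgCl2, 10 µM GDP, 1 mM DTT, 4% DMSO; 30°C. KD from a 1:1 binding model.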

[3] = target: GDP-bound KRAS wild-type protein (Homo sapiens, UniProt P01116); assay: Binding to KRAS by surface plasmon resonance (SPR), dissociation constant KD
Sequence of GDP-bound KRAS wild-type protein (P01116 1-188 isoform P01116-2): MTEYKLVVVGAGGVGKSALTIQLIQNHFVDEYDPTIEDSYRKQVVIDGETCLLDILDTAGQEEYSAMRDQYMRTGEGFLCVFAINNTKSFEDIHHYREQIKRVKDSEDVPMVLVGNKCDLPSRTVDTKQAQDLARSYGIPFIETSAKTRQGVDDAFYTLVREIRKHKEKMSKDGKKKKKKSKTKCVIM
Summary of the method: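 SPR, 30°C: Avi-biotin RAS·GDP captured via Biotin CAPture (~100–300 RU); running buffer HBS pH 7.4, 1 mM DTT, 10 mM MgCl2, 0.01% Tween 20, 10 µM GDP, 4% DMSO. Single-cycle kinetics, 100 µL/min, 75 s injections; 1:1 model → KD.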

[4] = target: HRAS wild-type protein (Homo sapiens, UniProt P01112); assay: Binding to HRAS by surface plasmon resonance (SPR), KD and KD ratio to KRAS
Sequence of HRAS wild-type protein (P01112 whole entry): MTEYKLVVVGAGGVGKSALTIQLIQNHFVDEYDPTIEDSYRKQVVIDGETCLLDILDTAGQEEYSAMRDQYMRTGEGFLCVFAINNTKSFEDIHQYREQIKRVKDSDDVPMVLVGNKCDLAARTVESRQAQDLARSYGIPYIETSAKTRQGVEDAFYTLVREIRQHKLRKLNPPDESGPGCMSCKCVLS
Summary of the method: as §1

[5] = ratio of KD value for GDP-bound NRAS wild-type protein to KD value for KRAS (SPR)
[6] = Single Cycle Kinetics, 1:1 binding model
[7] = ratio of KD value for HRAS wild-type protein to KD value for KRAS (SPR)
[8] = ratio of the KD value with respect to GDP-bound NRAS wild-type protein to the KD value with respect to KRAS
[9] = ratio of the KD value with respect to HRAS wild-type protein to the KD value with respect to KRAS
[10] = ratio of KD for GDP-bound NRAS wild-type protein to KD for KRAS
[11] = ratio of KD for HRAS wild-type protein to KD for KRAS

CC[C@H](C)[C@@H]1NC(=O)[C@H](CC2CC2)N(C)C(=O)C[C@@H](C(=O)N(C)C)N(C)C(=O)[C@H](C2CCCC2)N(C)C(=O)C2(CCC2)N(C)C(=O)[C@@H]2C[C@@H](C)CN2C(=O)[C@H](CCc2cc(F)c(C(F)(F)F)c(F)c2)NC(=O)CN(C)C(=O)[C@H](Cc2ccc(C)cc2)N2CC/C=C\C[C@@H](C2=O)N(C)C(=O)[C@@H]2CCCN2C1=O [PP1801]
IC50 [1]: 13 nM | NRAS /KRAS [2, 5]: A (a compound having 10 or more and less than 20 is denoted as A) | Kd [3, 6]: 0.21 nM | HRAS /KRAS [4, 7]: B (a compound having 3 or more and less than 10 is denoted as B)

CC[C@H](C)[C@@H]1NC(=O)[C@H](CC(C)C)N(C)C(=O)C[C@@H](C(=O)N2CCOCC2)NC(=O)[C@H](C2CCCC2)N(C)C(=O)C2(CCCC2)NC(=O)[C@@H]2CCCN2C(=O)[C@H](CCc2cc(F)c(C(F)(F)F)c(F)c2)NC(=O)CN(C)C(=O)[C@H](Cc2ccc(C(F)(F)F)cc2)N2CCCC[C@@H](C2=O)N(C)C(=O)CN(C)C1=O [PP0541]
IC50 [1]: 83.3 nM | NRAS /KRAS [2, 8]: B (a compound having 3 or more and less than 10 is denoted as B) | Kd [3, 6]: 0.47 nM | HRAS /KRAS [4, 9]: B (a compound having 3 or more and less than 10 is denoted as B)

CCCN1C(=O)CN(C)C(=O)[C@@H]2CCN2C(=O)[C@H]([C@@H](C)CC)NC(=O)[C@H](CC(C)C)N(C)C(=O)C[C@@H](C(=O)N2CCOCC2)N(C)C(=O)[C@H](C2CCCC2)N(C)C(=O)[C@](C)(CCC)NC(=O)[C@@H]2CCCN2C(=O)[C@H](CCc2cc(F)c(C(F)(F)F)c(F)c2)NC(=O)CN(C)C(=O)[C@@H]1Cc1ccc(C(F)(F)F)cc1 [PP0775] ([NMeL]I[Aze][Sar][NPrPhe(4-CF3)][Sar][hPhe(3,5-F2-4-CF3)]P[X3][NMeGly(cPent)][NMeD]-Morpholide; lactam N-11)
IC50 [1]: 417 nM | NRAS /KRAS [2, 10]: B (a compound having 3 or more and less than 10 is denoted as B) | Kd ([3]; Single Cycle Kinetics): 9.2 nM | HRAS /KRAS [4, 11]: B (a compound having 3 or more and less than 10 is denoted as B)

CCO[C@@H]1C[C@H]2C(=O)NC3(CC(C)(C)C3)C(=O)N(C)[C@@H](C(CC)CC)C(=O)N(C)[C@H](C(=O)N(C)C)CC(=O)N(C)[C@@H](CC3CC3)C(=O)N[C@@H]([C@@H](C)CC)C(=O)N(C)CC(=O)N(C)[C@H]3C/C=C\CCN(C3=O)[C@@H](Cc3ccc(C)cc3)C(=O)N(C)CC(=O)N[C@@H](CCc3ccc(Cl)c(Cl)c3)C(=O)N2C1 [PP2182]
IC50 [1]: 19.5 nM | NRAS /KRAS [2, 8]: AA (a compound having 20 or more is denoted as AA) | Kd [3, 6]: 0.72 nM | HRAS /KRAS [4, 9]: A (a compound having 10 or more and less than 20 is denoted as A)

CCO[C@@H]1C[C@H]2C(=O)NC3(CC(C)(C)C3)C(=O)N(C)[C@@H](C3CCCC3)C(=O)N(C)[C@H](C(=O)N(C)C)CC(=O)N(C)[C@@H](CC3CC3)C(=O)N[C@@H]([C@@H](C)CC)C(=O)N(C)CC(=O)N(C)[C@H]3C/C=C\CCN(C3=O)[C@@H](Cc3ccc(C)cc3)C(=O)N(C)CC(=O)N[C@@H](CCc3ccc(C(F)(F)F)c(OC)c3)C(=O)N2C1 [PP1903]
IC50 [1]: 5.5 nM | NRAS /KRAS [2, 8]: A (a compound having 10 or more and less than 20 is denoted as A) | Kd [3, 6]: 0.063 nM | HRAS /KRAS [4, 9]: B (a compound having 3 or more and less than 10 is denoted as B)

CCO[C@@H]1C[C@H]2C(=O)NC3(CC(C)(C)C3)C(=O)N(C)[C@@H](C(CC)CC)C(=O)N(C)[C@H](C(=O)N(C)C)CC(=O)N(C)[C@H]3CC/C=C/c4ccc(cc4)C[C@@H](C(=O)N(C)CC(=O)N[C@@H](CCc4cc(F)c(C(F)(F)F)c(F)c4)C(=O)N2C1)N1CC/C=C\C[C@@H](C1=O)N(C)C(=O)CN(C)C(=O)[C@H]([C@@H](C)CC)NC3=O [PP2586]
IC50 [1]: 14.4 nM | NRAS /KRAS [2, 10]: A (a compound having 10 or more and less than 20 is denoted as A) | Kd ([3]; 1:1 binding model): 0.17 nM | HRAS /KRAS [4, 11]: B (a compound having 3 or more and less than 10 is denoted as B)

CCO[C@@H]1C[C@H]2C(=O)NC3(CCC3)C(=O)N(C)[C@@H](C3CCCC3)C(=O)N(C)[C@H](C(=O)N(C)C)CC(=O)N(C)[C@@H](CC)C(=O)N[C@@H]([C@@H](C)CC)C(=O)N(C)CC(=O)N(C)[C@H]3CCCCN(C3=O)[C@@H](Cc3ccc(C(F)(F)F)cc3)C(=O)N(C)CC(=O)N[C@@H](CCc3ccc4ccsc4c3)C(=O)N2C1 [PP0888]
IC50 [1]: 25.6 nM | NRAS /KRAS [2, 10]: C (A compound having a KD ratio of 0.1 or more and less than 3 is denoted as C) | Kd ([3]; Single Cycle Kinetics): 0.17 nM | HRAS /KRAS [4, 11]: B (a compound having 3 or more and less than 10 is denoted as B)

CCC[C@H]1C(=O)N[C@@H]([C@@H](C)CC)C(=O)N(C)CC(=O)N(C)[C@H]2C/C=C\CCN(C2=O)[C@@H](Cc2ccc(C)cc2)C(=O)N(C)CC(=O)N[C@@H](CCc2cc(F)c(C(F)(F)F)c(F)c2)C(=O)N2CCC[C@H]2C(=O)N(C)C2(CCC2)C(=O)N(C)[C@@H](C2CCCC2)C(=O)N(C)[C@H](C(=O)N(C)C)CC(=O)N1C [PP1794]
IC50 [1]: 8.7 nM | NRAS /KRAS [2, 5]: A (a compound having 10 or more and less than 20 is denoted as A) | Kd [3, 6]: 0.06 nM | HRAS /KRAS [4, 7]: B (a compound having 3 or more and less than 10 is denoted as B)

CCO[C@@H]1C[C@H]2C(=O)NC3(CCC3)C(=O)N(C)[C@@H](C(CC)CC)C(=O)N(C)[C@H](C(=O)N(C)C)CC(=O)N(C)[C@@H](CC3CC3)C(=O)N[C@@H]([C@@H](C)CC)C(=O)N(C)CC(=O)N(C)[C@H]3C/C=C\CCN(C3=O)[C@@H](Cc3ccc(F)cc3C)C(=O)N(C)CC(=O)N[C@@H](CCc3cc(F)c(C(F)(F)F)c(F)c3)C(=O)N2C1 [PP1514]
IC50 [1]: 72.7 nM | NRAS /KRAS [2, 5]: A (a compound having 10 or more and less than 20 is denoted as A) | Kd [3, 6]: 0.65 nM | HRAS /KRAS [4, 7]: A (a compound having 10 or more and less than 20 is denoted as A)

CCO[C@@H]1C[C@H]2C(=O)NC3(CCC3)C(=O)N(C)[C@@H](C3CCCC3)C(=O)N(C)[C@H](C(=O)N3CCOCC3)CC(=O)N(C)[C@@H](CC3CCC3)C(=O)N[C@@H]([C@@H](C)CC)C(=O)N(C)CC(=O)N(C)[C@H]3CCCCCN(C3=O)[C@@H](Cc3ccc(C(F)(F)F)cc3)C(=O)N(C)CC(=O)N[C@@H](CCc3cc(F)c(C(F)(F)F)c(F)c3)C(=O)N2C1 [PP0683]
IC50 [1]: 44.7 nM | NRAS /KRAS [2, 8]: B (a compound having 3 or more and less than 10 is denoted as B) | Kd [3, 6]: 0.61 nM | HRAS /KRAS [4, 9]: B (a compound having 3 or more and less than 10 is denoted as B)

CCCN1C(=O)CN(C)C(=O)[C@@H]2CCN2C(=O)[C@H]([C@@H](C)CC)NC(=O)[C@H](CC(C)C)N(C)C(=O)C[C@@H](C(=O)N2CCOCC2)N(C)C(=O)[C@H](C2CCCC2)N(C)C(=O)C2(CCCC2)NC(=O)[C@@H]2CC3(CC3)CN2C(=O)[C@H](CCc2ccc(C(F)(F)F)c(Cl)c2)NC(=O)CN(C)C(=O)[C@@H]1Cc1ccc(C(F)(F)F)cc1 [PP0308] ([NMeL]I[Aze][Sar][NPrPhe(4-CF3)][Sar][hPhe(3-Cl-4-CF3)][Pro(4-spirocPr)][Ac5c][NMeGly(cPent)][NMeD]-Morpholide; lactam N-11)
IC50 [1]: 56 nM | NRAS /KRAS [2, 10]: B (a compound having 3 or more and less than 10 is denoted as B) | Kd ([3]; 1:1 binding model): 1.1 nM | HRAS /KRAS [4, 11]: B (a compound having 3 or more and less than 10 is denoted as B)

CCCN(C)C(=O)[C@@H]1CC(=O)N(C)[C@@H](CC(C)C)C(=O)N[C@@H]([C@@H](C)CC)C(=O)N(C)CC(=O)N(C)[C@H]2C/C=C\CCN(C2=O)[C@@H](Cc2ccc(C(F)(F)F)cc2)C(=O)N(C)CC(=O)N[C@@H](CCc2cc(F)c(C(F)(F)F)c(F)c2)C(=O)N2C[C@H](OCC)C[C@H]2C(=O)NC2(COC2)C(=O)N(C)[C@@H](C2CCCC2)C(=O)N1C [PP1938]
IC50 [1]: 34.6 nM | NRAS /KRAS [2, 8]: AA (a compound having 20 or more is denoted as AA) | Kd [3, 6]: 0.34 nM | HRAS /KRAS [4, 9]: A (a compound having 10 or more and less than 20 is denoted as A)

C#CC[C@H]1C(=O)N[C@@H]([C@@H](C)CC)C(=O)N(C)CC(=O)N(C)[C@H]2C/C=C\CCN(C2=O)[C@@H](Cc2ccc(C(F)(F)F)cc2)C(=O)N(C)CC(=O)N[C@@H](CCc2ccc(C(F)(F)F)c(OC)c2)C(=O)N2C[C@H](C)[C@H]2C(=O)NC2(CCC2)C(=O)N(C)[C@@H](C2CCCC2)C(=O)N(C)[C@H](C(=O)N2CCOCC2)CC(=O)N1C [PP3133]
IC50 [1]: 220 nM | NRAS /KRAS [2, 10]: A (a compound having 10 or more and less than 20 is denoted as A) | Kd ([3]; 1:1 binding model): 1.1 nM | HRAS /KRAS [4, 11]: A (a compound having 10 or more and less than 20 is denoted as A)
